Results reported in US11357857B2, “Excipient compounds for protein processing” (COMERA LIFE SCIENCES, INC., priority 2014, dated 2022).
“And” between values parts separate entries of the source, which are not always exact repeats. Equal values may be shown once. Where a name gives a salt, the structure may show the parent alone. Read-outs that look alike come from different tables or passages of the source.

Columns and labels:
[1] = test system: bovine gamma globulin (BGG)
[2] = Viscosity of PEG (Mw ~1,000,000) solution in Tris buffer with excipient (Examples 12-13); format: physicochemical
[3] = test system: bovine gamma globulin (BGG); experiment: Normalized viscosity of 280 mg/mL BGG in 20 mM histidine with excipients A/B (Example 20); format: physicochemical; details: no B
Excerpt: Excipient compounds for this Example are listed below in Table 11.

[4] = excipient 10 mg/mL
[5] = Caffeine solubility testing with co-solutes at ambient temperature (Examples 32-33); details: for Observation of caffeine dissolution: caffeine 80 mg/mL
Protocol: Prepared solutions were used either neat or diluted with deionized water.
A small magnetic stir bar was added to the vial, and the solution was allowed to mix vigorously on a stir plate for about 10 minutes.

[6] = test system: bovine gamma globulin (BGG); experiment: Viscosity of 280 mg/mL BGG formulations in 50 mM histidine HCl pH 6 with excipient, cone and plate viscometer (Examples 1, 2, 4-6); format: physicochemical; details: excipient 48 mg/mL
[7] = test system: bovine gamma globulin (BGG); experiment: Normalized viscosity of 280 mg/mL BGG in 50 mM histidine HCl with primary/secondary excipient combinations (Example 10); format: physicochemical; details: no secondary
Protocol: The primary excipient compounds were selected from compounds having both anionic and aromatic functionality, as listed below in Table 5. The secondary excipient compounds were selected from compounds having either nonionic or cationic charge at pH 6 and either imidazoline or benzene rings, as listed below in Table 5. Formulations of these excipients were prepared in 50 mM histidine hydrochloride buffer solution for viscosity measurement in the following way. […] The individual primary or secondary excipient compounds were then dissolved in 50 mM histidine HCl.

[8] = test system: bovine gamma globulin (BGG); experiment: Normalized viscosity of 280 mg/mL BGG in 20 mM histidine with dimethyl sulfone (Example 42); format: physicochemical
Protocol: Such formulations were prepared in 20 mM histidine buffer for viscosity measurement in the following way. […].

## CCN(CC)C(=O)c1cccnc1 [N,N-diethyl nicotinamide]
[1]; excipient 50 mg/mL
  Viscosity Reduction: 33%

## O=C(O)[C@H](O)[C@@H](O)[C@H](O)[C@H](O)CO [D-Gluconic acid/Na salt, D-Gluconic acid]
[2]; excipient 20 mg/mL
  Viscosity: 86.6 cP
  Viscosity Reduction: 17%
[2]; excipient 40 mg/mL
  Viscosity: 81.24 cP
  Viscosity Reduction: 23%

## Cn1c(=O)c2[nH]cnc2n(C)c1=O [Theophylline]
[3]; excipient A 10 mg/mL
  Normalized Viscosity: 0.84

## O=C(O)CN(CCN(CC(=O)O)CC(=O)O)CC(=O)O [EDTA/Na salt, ethylenediaminetetraacetic acid (EDTA)]
[2]; excipient 20 mg/mL
  Viscosity: 77.4 cP
  Viscosity Reduction: 26%
[2]; excipient 40 mg/mL
  Viscosity: 68.1 cP
  Viscosity Reduction: 35%

## O=P([O-])([O-])[O-].[K+].[K+].[K+] [Potassium phosphate, potassium phosphate tribasic]
[4]
  Viscosity: 72.3 cP
  Viscosity Reduction: 9.3%

## c1c[nH]cn1 [Imidazole HCl]
[1]; excipient 100 mg/mL
  Viscosity Reduction: 57%

## CCCCn1cc[n+](C)c1.[Cl-] [1-butyl-3-methylimidazolium chloride]
[1]; excipient 100 mg/mL
  Viscosity Reduction: 52%

## O=C(O)CN(CCN(CC(=O)O)CC(=O)O)CC(=O)O [EDTA/K salt, ethylenediaminetetraacetic acid (EDTA)]
[2]; excipient 20 mg/mL
  Viscosity: 76.9 cP
  Viscosity Reduction: 27%
[2]; excipient 40 mg/mL
  Viscosity: 67.1 cP
  Viscosity Reduction: 36%

## O=C([O-])c1cccnc1.[Na+] [Nicotinic acid, sodium salt]
[1]; excipient 100 mg/mL
  Viscosity Reduction: 46%

## NCCN [Ethylene diamine]
[2]; excipient 20 mg/mL
  Viscosity: 83.9 cP
  Viscosity Reduction: 15%
[2]; excipient 40 mg/mL
  Viscosity: 84.7 cP
  Viscosity Reduction: 17%

## O=C(O)CC(O)(CC(=O)O)C(=O)O
[2]; excipient 20 mg/mL
  Viscosity: 73.3 cP
  Viscosity Reduction: 28%
[2]; excipient 40 mg/mL
  Viscosity: 56.8 cP
  Viscosity Reduction: 44%
[4]
  Viscosity: 74.9 cP
  Viscosity Reduction: 6.0%

## Cl.NCCc1ccc(O)cc1 [Tyramine HCl]
[5]; co-solute 30 mg/mL
  Observation of caffeine dissolution: DND
[5]; co-solute in water, ambient temperature (about 23 C)
  Dissolution of caffeine enabled relative to reported solubility limit: at least about four times
[1]; excipient 70 mg/mL
  Viscosity Reduction: 59%

## NC(=O)c1cccnc1 [Niacinamide]
[6]
  Viscosity: 39 cP
  Viscosity Reduction: 51%
[5]; co-solute 30 mg/mL
  Observation of caffeine dissolution: DND
[1]; excipient 50 mg/mL
  Viscosity Reduction: 49%

## NC(=O)c1ccncc1 [Isonicotinamide]
[1]; excipient 50 mg/mL
  Viscosity Reduction: 52%

## O=C(O)CCCC[C@@H]1SC[C@@H]2NC(=O)N[C@@H]21 [Biotin]
[1]; excipient 20 mg/mL
  Viscosity Reduction: 31%

## CC1=CC(=O)NS(=O)(=O)O1 [Acesulfame K, acesulfame potassium]
[3]; excipient A 40 mg/mL
  Normalized Viscosity: 0.61
[3]; excipient A 80 mg/mL
  Normalized Viscosity: 0.44
[5]; co-solute 80 mg/mL
  Observation of caffeine dissolution: DND

## C1COCCN1.Cl [Morpholine HCl]
[1]; excipient 50 mg/mL
  Viscosity Reduction: 40%

## O=C(O)c1ccc(O)cc1 [4-hydroxybenzoic acid]
[7]; primary excipient 30 mg/mL
  Normalized Viscosity: 0.61

## CS(C)(=O)=O [Dimethyl sulfone]
[8]; dimethyl sulfone 15 mg/mL
  Normalized Viscosity: 0.92
[8]; dimethyl sulfone 30 mg/mL
  Normalized Viscosity: 0.71 and 0.72
[8]; dimethyl sulfone 50 mg/mL
  Normalized Viscosity: 0.71

## O=C([O-])C(=O)Cc1ccccc1.[Na+] [Sodium phenylpyruvate]
[1]; excipient 55 mg/mL
  Viscosity Reduction: 43%

## O=S(=O)(O)c1ccc(O)cc1 [4-hydroxybenzene sulfonic acid]
[7]; primary excipient 31 mg/mL
  Normalized Viscosity: 0.59

## Nc1cccnc1 [3-aminopyridine]
[1]; excipient 50 mg/mL
  Viscosity Reduction: 49%
